One assay deals with PD-1/PD-L1 (Homo sapiens, UniProt Q9NZQ7). Description: PD-1/PD-L1 biochemical protein-protein interaction assay (ALPHA). The note with it: 0.3 nM His tagged PD-L1, 2.5 nM biotinylated Fc-PD-1, 60 minutes at 25° C., read-out: IC50 PD-L1-PD-1 Alpha IC50-mono PD-L1-fcP-D1. The format is binding. In outline: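 IC50 values derive from four-parameter fits of ALPHA signal decrease. Assay: 0.3 nM His-tagged PD-L1 with 2.5 nM biotinylated Fc-PD-1, Hepes pH 7.4 with 0.005% Tween 20 and 0.01% BSA, 60 min at 25° C, then anti-His acceptor and streptavidin donor beads.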
Sequence of PD-1/PD-L1 (Q9NZQ7 19-238 limits assumed): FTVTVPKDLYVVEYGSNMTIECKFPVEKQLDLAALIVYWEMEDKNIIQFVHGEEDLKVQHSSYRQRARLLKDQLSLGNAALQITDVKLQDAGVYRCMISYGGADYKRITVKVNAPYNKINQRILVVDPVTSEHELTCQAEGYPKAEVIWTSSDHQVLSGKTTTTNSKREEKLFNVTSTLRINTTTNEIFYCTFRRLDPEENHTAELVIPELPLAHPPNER

The target in another assay is T1, PD-1/PD-L1 interaction (Homo sapiens, UniProt Q9NZQ7).
T1 construct: expressed in transfected cells; host or cells: CHO cells (aAPC-PD-L1) co-cultured with Jurkat cells overexpressing PD-1 and an NFAT-luciferase reporter
T1 sequence (Q9NZQ7 19-290): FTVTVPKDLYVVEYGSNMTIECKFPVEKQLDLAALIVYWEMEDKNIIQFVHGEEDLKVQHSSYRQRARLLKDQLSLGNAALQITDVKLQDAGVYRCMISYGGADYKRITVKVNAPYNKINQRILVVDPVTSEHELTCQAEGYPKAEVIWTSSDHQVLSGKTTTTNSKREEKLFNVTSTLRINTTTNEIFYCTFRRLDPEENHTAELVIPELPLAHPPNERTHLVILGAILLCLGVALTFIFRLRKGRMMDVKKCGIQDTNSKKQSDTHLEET
Description: PD-1/PD-L1 NFAT reporter co-culture assay. The format is cell-based. To be noted: Jurkat PD-1 NFAT-luciferase cells co-cultured with aAPC-PD-L1 CHO cells, 6 hrs at 37° C.; read-out: EC50 NFAT Luciferase. The essentials: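 CHO aAPC-PD-L1 seeded overnight; PD-1/NFAT-luc Jurkat + cpd in RPMI 1640, 2% FBS added at once; 6 h, 37 °C; ONE-Glo luminescence; EC50, 4-parameter fit.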

The target in another assay is T2, PD-L1 (Homo sapiens, UniProt Q9NZQ7).
T2 construct: determine if they can specifically dimerize the extracellular domains of PD-L1
T2 sequence (Q9NZQ7 19-238 limits assumed): as the sequence (Q9NZQ7 19-238 limits assumed) above
T2 sequence (Q9NZQ7 19-238 limits assumed): as above
Put plainly: PD-L1/PD-L1 dimerization biochemical protein-protein interaction assay (ALPHA). The format is binding. To be noted: compound-induced PD-L1 dimerization, head prints '1 nM' (0.5 nM His-tagged PD-L1 and 0.5 nM FLAG-tagged PD-L1), read-out: AC50 PDL1 Dimer Alpha 1 nM. In outline:
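After 2 h at 25 °C with compound, His- and FLAG-tagged PD-L1 ECDs (each 0.5 nM final; 25 mM Hepes pH 7.4, 150 mM NaCl) were detected by sequential anti-His acceptor and anti-FLAG donor bead incubations. Dose-response curves fitted to four-parameter equation for AC50.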

Structures are written as SMILES. pEC50, pIC50: −log10 of the molar value.

For orientation: pIC50 means −log10 of the IC50, conventionally taken in molar units. By pEC50 is commonly meant the EC50 on a negative log10 scale, so that one unit is a factor of ten. As a reminder, the AC50 is the midpoint of the concentration-response curve, whichever way the signal moves. In the case of `COc1nc(O[C@H]2CCc3c(-c4cccc(-c5cnc(CNC[C@@H]6CCC(=O)N6)c(OC)n5)c4Cl)cccc32)c(Cl)cc1CN[C@@H]1CCC[C@@H]1O` [Example 642], the pIC50 at PD-1/PD-L1 is 8.63. The pEC50 at PD-1/PD-L1 interaction is 6.71. Also, the AC50 on PD-L1 was determined as 67.2 nM.
`COc1nc(O[C@H]2CCc3c(-c4cccc(-c5cnc(CN[C@@H]6CCC[C@@H]6O)c(OC)n5)c4Cl)cccc32)c(Cl)cc1CN[C@@H]1CCC[C@@H]1O` [Example 643]: at PD-1/PD-L1, the pIC50 was 9.13. The pEC50 on PD-1/PD-L1 interaction is 7.05. Also, the AC50 at PD-L1 was 39 nM.
For `COc1nc(-c2cccc(-c3cccc4c3CC[C@@H]4Oc3nc(OC)c(CNC[C@@H]4CCC(=O)N4)cc3Cl)c2Cl)ccc1CN[C@@H]1CCC[C@@H]1O` [Example 644], in that order: 8.71, 7.09 and 136 nM.
With `COc1nc(-c2cccc(-c3cccc4c3CC[C@@H]4Oc3nc(OC)c(CN[C@@](C)(CO)C(=O)O)cc3Cl)c2Cl)ccc1CN[C@@H]1CCC[C@@H]1O` [Example 645], the pIC50 at PD-1/PD-L1 is 10.19. The pEC50 at PD-1/PD-L1 interaction was 7.52. The AC50 on PD-L1 was found to be 30.7 nM.
For `COc1nc(-c2cccc(-c3cccc4c3CC[C@@H]4Oc3nc(OC)c(CN[C@@H]4CCC[C@@H]4O)cc3Cl)c2Cl)ccc1CN[C@@H]1CCC[C@@H]1O` [Example 646], in that order: 8.20, 6.84 and 73.2 nM.
For `COc1nc(O[C@H]2CCc3c(-c4cccc(-c5cnc(CN[C@@H]6CCC[C@@H]6O)c(OC)n5)c4Cl)cccc32)c(Cl)cc1CNC[C@@H]1CCC(=O)N1` [Example 647], at PD-1/PD-L1, the pIC50 was 8.72. In addition, at PD-1/PD-L1 interaction, the pEC50 was 6.63. Besides, the AC50 on PD-L1 is 211 nM.
For the compound `COc1nc(O[C@H]2CCc3c(-c4cccc(-c5cnc(CN[C@@H]6CCC[C@@H]6O)c(OC)n5)c4Cl)cccc32)c(Cl)cc1CN[C@@](C)(CO)C(=O)O` [Example 648], at PD-1/PD-L1, the pIC50 was 10.19. Also, the pEC50 on PD-1/PD-L1 interaction is 7.24. The AC50 on PD-L1 amounted to 60.9 nM.
The matching figures for `COc1nc(O[C@H]2CCc3c(-c4cccc(-c5cnc(CNC[C@@H]6CCC(=O)N6)c(OC)n5)c4Cl)cccc32)c(Cl)cc1CN[C@@](C)(CO)C(=O)O` [Example 649]: 10.19, 7.54 and 38.8 nM.
Consider `COc1nc(O[C@H]2CCc3c(-c4cccc(-c5ccc(CNC[C@@H]6CCC(=O)N6)c(OCC#N)c5)c4Cl)cccc32)c(Cl)cc1CN[C@@H]1CCC[C@@H]1O` [Example 650], for which the pIC50 on PD-1/PD-L1 was 9.54. Further, the pEC50 at PD-1/PD-L1 interaction is 7.41. In addition, the AC50 on PD-L1 was 8.2 nM.
Regarding `COc1nc(O[C@H]2CCc3c(-c4cccc(-c5ccc(CNC[C@@H]6CCC(=O)N6)c(OCC#N)n5)c4Cl)cccc32)c(Cl)cc1CN[C@@H]1CCC[C@@H]1O` [Example 651], the pIC50 on PD-1/PD-L1 was 9.53. For the same compound, the pEC50 at PD-1/PD-L1 interaction is 7.39. In addition, the AC50 at PD-L1 was determined as 29.5 nM.
Consider `COc1nc(O[C@H]2CCc3c(-c4cccc(-c5cnc(CNC[C@@H]6CCC(=O)N6)c(OC)n5)c4Cl)cccc32)c(Cl)cc1CNC[C@@H]1CCC(=O)N1` [Example 652], for which the pIC50 at PD-1/PD-L1 was 9.80. At PD-1/PD-L1 interaction, the pEC50 is 7.23. For the same compound, the half-maximal activity concentration (AC50) at PD-L1 came out at 140 nM.
For `N#CCOc1cc(-c2cccc(-c3cccc4c3CC[C@@H]4Oc3nc(OCC#N)c(CNC[C@@H]4CCC(=O)N4)cc3Cl)c2Cl)ccc1CNC[C@@H]1CCC(=O)N1` [Example 653], the pIC50 at PD-1/PD-L1 is 9.77. For the same compound, on PD-1/PD-L1 interaction, the pEC50 is 7.03. The AC50 on PD-L1 came out at 105 nM.
For `COc1nc(O[C@H]2CCc3c(-c4cccc(-c5ccc(CNC[C@@H]6CCC(=O)N6)c(OCC#N)c5)c4Cl)cccc32)c(Cl)cc1CNC[C@@H](O)CC(=O)O` [Example 654], in that order: 10.05, 7.57 and 10.9 nM.
The matching figures for `COc1nc(O[C@H]2CCc3c(-c4cccc(-c5ccc(CNC[C@@H]6CCC(=O)N6)c(OCC#N)c5)c4Cl)cccc32)c(Cl)cc1CNC[C@@H]1CCC(=O)N1` [Example 655]: 9.39, 7.55 and 26 nM.
Consider `COc1nc(O[C@H]2CCc3c(-c4cccc(-c5ccc(CNC[C@@H]6CCC(=O)N6)c(OCC#N)n5)c4Cl)cccc32)c(Cl)cc1CNC[C@@H]1CCC(=O)N1` [Example 656], for which the pIC50 on PD-1/PD-L1 was 9.54. The pEC50 on PD-1/PD-L1 interaction was 7.62. For the same compound, the AC50 on PD-L1 is 37.7 nM.
Take `COc1nc(O[C@H]2CCc3c(-c4cccc(-c5ccc(CNC[C@@H]6CCC(=O)N6)c(OC(F)F)c5)c4Cl)cccc32)c(Cl)cc1CNC[C@@H]1CCC(=O)N1` [Example 657]: the pIC50 at PD-1/PD-L1 was 9.10. The pEC50 at PD-1/PD-L1 interaction was 6.71. Further, on PD-L1, the AC50 stood at 156 nM.
For `COc1nc(-c2cccc(-c3cccc4c3CC[C@@H]4Oc3nc(OCC#N)c(CNC[C@@H]4CCC(=O)N4)cc3Cl)c2Cl)ccc1CNC[C@@H]1CCC(=O)N1` [Example 658], in that order: 9.66, 7.29 and 78.5 nM.
The matching figures for `CS(=O)(=O)c1cncc(COc2nc(O[C@H]3CCc4c(-c5cccc(-c6ccc(CN)cc6)c5Cl)cccc43)c(Cl)cc2CNC[C@@H](O)CC(=O)O)c1` [Example 659]: 10.19, 7.29 and 22.1 nM.
For `C[C@@](CO)(NCc1cc(Cl)c(O[C@H]2CCc3c(-c4cccc(-c5ccc(OCCNCCO)cc5)c4Cl)cccc32)nc1OCc1cncc(S(C)(=O)=O)c1)C(=O)O` [Example 660], the pIC50 at PD-1/PD-L1 was 10.19. Also, on PD-1/PD-L1 interaction, the pEC50 is 6.97. In addition, the AC50 on PD-L1 was determined as 15.2 nM.
The matching figures for `N#Cc1cncc(COc2nc(O[C@H]3CCc4c(-c5cccc(-c6ccc(OCCNCCO)cc6)c5Cl)cccc43)ccc2CNC[C@@H](O)CC(=O)O)c1` [Example 661]: 9.59, 6.80 and 126 nM.
The matching figures for `N#Cc1cncc(COc2nc(O[C@H]3CCc4c(-c5cccc(-c6ccc(OCCNCCO)cc6)c5Cl)cccc43)c(Br)cc2CNC[C@@H](O)CC(=O)O)c1` [Example 662]: 9.86, 7.08 and 14.5 nM.
As to `C[C@@](CO)(NCc1cc(Br)c(O[C@H]2CCc3c(-c4cccc(-c5ccc(OCCNCCO)cc5)c4Cl)cccc32)nc1OCc1cncc(C#N)c1)C(=O)O` [Example 663], the pIC50 at PD-1/PD-L1 is 10.19. The pEC50 at PD-1/PD-L1 interaction was 6.93. Further, the AC50 on PD-L1 was 6.56 nM.
As for `CNCc1cc(Cl)c(O[C@H]2CCc3c(-c4cccc(-c5ccc(OCCN6CC[C@@H](O)C6)cc5)c4Cl)cccc32)nc1OCc1cncc(S(C)(=O)=O)c1` [Example 664], on PD-1/PD-L1, the pIC50 was 8.58. For the same compound, at PD-1/PD-L1 interaction, the pEC50 is no more than 4.30. The AC50 at PD-L1 was no less than 10000 nM.
Consider `CC(C)(NCc1cc(Cl)c(O[C@H]2CCc3c(-c4cccc(-c5ccc(OCCN6CC[C@@H](O)C6)cc5)c4Cl)cccc32)nc1OCc1cncc(S(C)(=O)=O)c1)C(=O)O` [Example 665], for which the negative logarithm of the IC50 (pIC50) at PD-1/PD-L1 was 10.19. Moreover, on PD-1/PD-L1 interaction, the pEC50 was 6.82. At PD-L1, the half-maximal activity concentration (AC50) was 16.5 nM.
The matching figures for `CS(=O)(=O)c1cncc(COc2nc(O[C@H]3CCc4c(-c5cccc(-c6ccc(OCCN7CC[C@@H](O)C7)cc6)c5Cl)cccc43)c(Cl)cc2CNC[C@@H](O)CC(=O)O)c1` [Example 666]: 10.12, 6.38 and 22.9 nM.

For the origin of these results see US12590062B2, “PD-1/PD-L1 inhibitors” (Gilead Sciences, Inc., priority 2017, dated 2026).
